Here are results for nine compounds from DBAASP.

Converted amounts (≈) assume the structure as drawn.

Some test systems named below: Listeria innocua; Escherichia coli; Pasteurella multocida; Leuconostoc lactis; Micrococcus luteus; Streptococcus uberis; Staphylococcus aureus; Bacillus cereus.
Assay in all cases: ≥ marks a high value that may be exact or a test limit, other limits are often not marked, values filed in µg/mL are converted to µM
Assay [1] concerns Bacillus licheniformis X39.
The test system of assay [2] is Candida albicans ATCC 2002.
The subject of assay [3] is Staphylococcus aureus ATCC 2592.
The test system of assay [4] is Psychrobacter faecalis X29.
Assay [5] has as its system Staphylococcus carnosus KHS.
The test system of assay [6] is Staphylococcus aureus ATCC 25923.
The subject of assay [7] is Rhodococcus rhodochrous X15.
The test system of assay [8] is Enterococcus faecalis 981.
Assay [9] relates to Staphylococcus epidermidis.
Assay [10] concerns Escherichia coli ATCC 8739.
Assay [11] relates to Staphylococcus aureus ATCC 6538.
In assay [12] the test system is Staphylococcus aureus ATCC 43300.

What is called MIC is the lowest concentration found to suppress growth. A lower MIC goes with a more susceptible organism.

For `CC[C@H](C)[C@H](NC(=O)[C@H](C)N)C(=O)N[C@@H](CC(C)C)C(=O)N[C@H](C(=O)N[C@H](C(=O)N[C@@H](CC(C)C)C(=O)N[C@@H](C)C(=O)N[C@@H](CC(N)=O)C(=O)N[C@@H](Cc1c[nH]c2ccccc12)C(=O)N[C@@H](C)C(=O)N[C@@H](CCCN=C(N)N)C(=O)N[C@@H](CCCCN)C(=O)N[C@@H](Cc1ccccc1)C(=O)N[C@@H](CC(C)C)C(N)=O)[C@@H](C)O)[C@@H](C)O` [AILTTLANWARKFL], the MIC was 19 µM (≈ 30.7 µg/mL) in assay [1]; at least 75 µM in assay [2]; at least 46.4 µM in assay [3]; at least 75 µM in assay [4]; at least 37.5 µM in assay [5]; 37.5 µM (≈ 60.6 µg/mL) in [6]. For the same compound, the MIC was 4.8 µM (≈ 7.76 µg/mL) in [7] and at least 150 µM in [8].
As to `CC[C@H](C)[C@H](NC(=O)[C@@H]1CCCN1C(=O)[C@H](Cc1ccccc1)NC(=O)[C@@H](N)Cc1ccccc1)C(=O)N[C@H](C(=O)NCC(=O)N[C@@H](CCCCN)C(=O)N[C@@H](CC(C)C)C(=O)N[C@@H](CC(C)C)C(=O)N[C@@H](CO)C(=O)NCC(=O)N[C@@H](CC(C)C)C(=O)N[C@@H](Cc1ccccc1)C(N)=O)C(C)C` [FFPIVGKLLSGLF], the minimal inhibitory concentration (MIC) was 19 µM (≈ 27.3 µg/mL) in assay [1]; 19 µM (≈ 27.3 µg/mL) in assay [5]; 150 µM (≈ 216 µg/mL) in assay [6]; 4.5 µM (≈ 6.47 µg/mL) in assay [7]; at least 75 µM in assay [8].
Turning to `CC[C@H](C)[C@H](NC(=O)[C@@H]1CCCN1C(=O)[C@H](CC(C)C)NC(=O)[C@@H](N)Cc1ccccc1)C(=O)N[C@H](C(=O)NCC(=O)N[C@@H](CCCCN)C(=O)N[C@@H](CC(C)C)C(=O)N[C@@H](CC(C)C)C(=O)N[C@@H](CO)C(=O)NCC(=O)N[C@@H](CC(C)C)C(=O)N[C@@H](Cc1ccccc1)C(N)=O)C(C)C` [FLPIVGKLLSGLF], the MIC in [1] was 19 µM (≈ 26.7 µg/mL); in [5], 19 µM (≈ 26.7 µg/mL); in assay [6], 150 µM (≈ 210 µg/mL); in [7] it was 9 µM (≈ 12.6 µg/mL); in assay [8] it was at least 37.5 µM.
`CC[C@H](C)[C@@H]1NC(=O)[C@H](CCCCN)NC(=O)[C@@H](NC(=O)[C@H](CCCCN)NC(=O)[C@H](C)NC(=O)[C@H](CCCCN)NC(=O)[C@H](CC(=O)O)NC(=O)[C@H](CCSC)NC(=O)[C@H](CC(C)C)NC(=O)[C@@H](NC(=O)CNC(=O)[C@H](C)NC(=O)[C@H](CC(C)C)NC(=O)[C@H](CC(N)=O)NC(=O)[C@@H](NC(=O)[C@@H](NC(=O)[C@@H](NC(=O)[C@H](CC(N)=O)NC(=O)[C@H](CCSC)NC(=O)[C@H](C)NC(=O)[C@@H](NC(=O)[C@H](CC(N)=O)NC(=O)[C@H](CC(C)C)NC(=O)[C@H](Cc2ccccc2)NC(=O)CN)[C@@H](C)O)[C@@H](C)O)C(C)C)[C@@H](C)O)[C@@H](C)O)CSSC[C@@H](C(=O)O)NC(=O)CNC(=O)[C@H](CCCN=C(N)N)NC1=O` [GFLNTAMNTVTNLAGTLMDKAKCKIRGC] showed an MIC in assay [4] of at least 400 µM.
Turning to `CC[C@H](C)[C@H](NC(=O)[C@@H](NC(=O)[C@@H]1CCCN1C(=O)[C@@H](NC(=O)[C@@H](NC(=O)[C@H](Cc1cnc[nH]1)NC(=O)[C@@H]1CCCN1C(=O)[C@H](CC(C)C)NC(=O)[C@@H](NC(=O)[C@H](Cc1cnc[nH]1)NC(=O)[C@H](CCC(N)=O)NC(=O)[C@H](C)NC(=O)[C@@H](NC(=O)[C@H](CO)NC(=O)CNC(=O)[C@H](CC(C)C)NC(=O)[C@@H](NC(=O)[C@H](CO)NC(=O)[C@H](CC(C)C)NC(=O)[C@H](CC(C)C)NC(=O)CN)C(C)C)C(C)C)C(C)C)C(C)C)C(C)C)C(C)C)C(=O)N[C@@H](C)C(=O)N[C@@H](CCC(=O)O)C(=O)N[C@@H](Cc1cnc[nH]1)C(=O)N[C@@H](CC(C)C)C(N)=O` [GLLSVLGSVAQHVLPHVVPVIAEHL], the MIC in the assay with Listeria innocua was at least 38.7 µM; with Escherichia coli, 38.7 µM (≈ 100 µg/mL); in assay [9], at least 38.7 µM; with Pasteurella multocida it was 9.67 µM (≈ 25 µg/mL); in the assay with Leuconostoc lactis it was 9.67 µM (≈ 25 µg/mL); in the assay with Micrococcus luteus, 0.58 µM (≈ 1.5 µg/mL). Further, the values for the MIC against Streptococcus uberis, in the assay with Staphylococcus aureus and in the assay with Bacillus cereus were at least 38.7 µM, 38.7 µM (≈ 100 µg/mL) and 19.3 µM (≈ 50 µg/mL), respectively.
Take `CC[C@H](C)[C@H](NC(=O)[C@H](CCCCN)NC(=O)[C@@H](NC(=O)[C@H](CO)NC(=O)[C@H](CC(N)=O)NC(=O)[C@H](Cc1c[nH]c2ccccc12)NC(=O)[C@H](CC(C)C)NC(=O)CN)[C@@H](C)CC)C(=O)N[C@@H](C)C(=O)NCC(=O)N[C@@H](CCCCN)C(=O)N[C@@H](CCCCN)C(=O)N[C@@H](CC(C)C)C(=O)N[C@@H](Cc1ccccc1)C(=O)N[C@H](C(=O)N[C@@H](CC(N)=O)C(=O)N[C@H](C(=O)N[C@@H](CC(C)C)C(=O)N[C@@H](CC(=O)O)C(=O)N[C@@H](CCCCN)C(=O)N[C@H](C(=O)N[C@@H](CCCN=C(N)N)C(=O)N[C@H]1CSSC[C@@H](C(=O)N[C@@H](CCCCN)C(=O)N[C@H](C(=O)N[C@@H](CO)C(=O)N2CCC[C@H]2C(=O)N[C@@H](CC(=O)O)C(=O)N[C@H](C(=O)N[C@@H](CCC(=O)O)C(=O)N[C@@H](Cc2ccc(O)cc2)C(=O)N[C@@H](Cc2cnc[nH]2)C(=O)N[C@@H](CCCCN)C(=O)O)C(C)C)[C@@H](C)O)NC(=O)CNC(=O)CNC(=O)[C@H](C)NC(=O)[C@H](C(C)C)NC(=O)[C@H](CCCCN)NC1=O)[C@@H](C)CC)C(C)C)C(C)C` [GLWNSIKIAGKKLFVNVLDKIRCKVAGGCKTSPDVEYHK]: the figures for the MIC in assay [10], in assay [11] and in [12] were 6.3 µM (≈ 27.2 µg/mL), 6.3 µM (≈ 27.2 µg/mL) and 100 µM (≈ 432 µg/mL), respectively.
For `CC[C@H](C)[C@H](NC(=O)[C@@H](NC(=O)CN)C(C)C)C(=O)N[C@@H](C)C(=O)N[C@@H](C)C(=O)N[C@@H](C)C(=O)N[C@@H](CCCCN)C(=O)N[C@@H](CCCCN)C(=O)N[C@H](C(=O)N[C@H](C(=O)N[C@@H](CC(N)=O)C(=O)N[C@H](C(=O)N[C@@H](CC(C)C)C(=O)N[C@@H](CCCCN)C(=O)N[C@@H](CC(N)=O)C(=O)N[C@@H](CC(C)C)C(=O)N[C@@H](Cc1ccccc1)C(N)=O)C(C)C)C(C)C)C(C)C` [GVIAAAKKVVNVLKNLF], the MIC in the assay with Listeria innocua was 14 µM (≈ 25 µg/mL); against Escherichia coli, above 56 µM; in assay [9], 6.73 µM (≈ 12 µg/mL); with Pasteurella multocida, at least 56 µM; against Leuconostoc lactis it was 1.68 µM (≈ 3 µg/mL); against Micrococcus luteus it was 6.73 µM (≈ 12 µg/mL). Further, the MIC against Streptococcus uberis, against Staphylococcus aureus and with Bacillus cereus was 14 µM (≈ 25 µg/mL) in each case.
Take `CC[C@H](C)[C@H](NC(=O)[C@@H](NC(=O)[C@H](C)NC(=O)[C@H](C)NC(=O)[C@@H](NC(=O)[C@H](CCCCN)NC(=O)[C@H](CCCCN)NC(=O)[C@@H](NC(=O)[C@@H](NC(=O)[C@H](C)NC(=O)[C@H](Cc1ccccc1)NC(=O)[C@H](CC(C)C)NC(=O)[C@@H](N)CCCCN)C(C)C)[C@@H](C)CC)C(C)C)C(C)C)C(=O)NCC(=O)NCC(=O)N[C@@H](CC(C)C)C(N)=O` [KLFAVIKKVAAVIGGL]: the MIC against Listeria innocua is 15.4 µM (≈ 25 µg/mL); against Escherichia coli, 61.5 µM (≈ 99.9 µg/mL); in assay [9] it was 15.4 µM (≈ 25 µg/mL); with Pasteurella multocida it was at least 61.5 µM; against Leuconostoc lactis, 7.38 µM (≈ 12 µg/mL); with Micrococcus luteus, at least 61.5 µM. Further, the MIC is at least 61.5 µM with Streptococcus uberis, 30.7 µM (≈ 50 µg/mL) against Staphylococcus aureus and at least 61.5 µM against Bacillus cereus.
Regarding `CC[C@H](C)[C@H](NC(=O)[C@H](CCCCN)NC(=O)[C@H](CC(=O)O)NC(=O)[C@H](CC(C)C)NC(=O)[C@@H](NC(=O)[C@H](CC(N)=O)NC(=O)[C@H](CC(C)C)NC(=O)[C@@H](NC(=O)[C@H](Cc1ccccc1)NC(=O)[C@H](CCC(N)=O)NC(=O)[C@H](CCCCN)NC(=O)CNC(=O)[C@H](C)NC(=O)[C@H](CC(N)=O)NC(=O)[C@H](CCCCN)NC(=O)[C@H](Cc1ccccc1)NC(=O)[C@H](CC(N)=O)NC(=O)[C@H](CCC(=O)O)NC(=O)[C@H](Cc1c[nH]c2ccccc12)NC(=O)[C@H](CC(C)C)NC(=O)[C@@H](N)CO)[C@@H](C)CC)[C@@H](C)CC)C(=O)N[C@@H](CCCN=C(N)N)C(=O)N[C@H]1CSSC[C@@H](C(=O)N[C@@H](CCCN=C(N)N)C(=O)N[C@H](C(=O)O)[C@@H](C)O)NC(=O)CNC(=O)CNC(=O)[C@H](C)NC(=O)[C@H](C(C)C)NC(=O)[C@H](CCCN=C(N)N)NC1=O` [SLWENFKNAGKQFILNILDKIRCRVAGGCRT], the values for the MIC in assay [1], in assay [3] and in assay [4] were 14 µM (≈ 49.7 µg/mL), 1.7 µM (≈ 6.04 µg/mL) and 1.7 µM (≈ 6.04 µg/mL), respectively.
